Data taken from patent US5952189A (priority 1997, dated 1999).
“Also recorded” adds a separate entry of the source. Like-named read-outs stand apart in the source and are kept apart here. Starred links: 1 amine or outer side, 2 acyl side, 3 side chain; linkers in the order of their positions; H or OH if unused. Positions of bridges follow the written chain, without caps; N, C: chain ends. Non-standard residues stand in square brackets, D forms with d. Residues, ends and D or L forms follow the SMILES beside them. Chains are numbered I, II in the order given. Actinocin(9to1) = Cc1c2oc3c(C)ccc(C(=O)[*:1])c3nc-2c(C(=O)[*:2])c(N)c1=O; NMeV = CN[C@H](C(=O)O)C(C)C; Sar = CNCC(=O)O

How the values were obtained:
U937 cells [1] = assay: cells; assay type: cell-based, human
U937 cells [2] = conditions: cited from earlier work
[3] = system: TNF-induced hepatocyte apoptosis; assay: TNF-induced hepatotoxicity in mice (serum transaminases); assay type: in vivo, Balb/c mice
Experimental: In this example the concept that a protease inhibitor such as DK120 may attenuate inappropriate apoptosis that causes tissue damage in systemic inflammatory response syndrome (SIRS) was tested. TNF-induced hepatocyte apoptosis in mice was performed as described by Leist et al. ((1995) J. Immunol. 154:1778-1786). Briefly, Balb/c mice were injected ip with […] murine TNF combined with […] Actinomycin D/mouse. Twelve h later, mice were anesthetized and bled from the heart to measure serum transaminase levels, which are standard clinically used indicators of liver damage. Mice that were treated with protease inhibitors were injected ip with these compounds 30 min. prior to TNF. Alanine aminotransferase (ALT) and aspartate aminotransferase (AST) were assayed using a commercially available kit (Sigma). […] However, treatment with DK120 caused a doss-dependent decrease in serum transaminase levels. […] However, a drug that nonspecifically blocks all apoptotic pathways that normally function to maintain homeostasis may not be clinically desirable. Subsequent studies were performed to determine if DK120 could also suppress hepatocyte apoptosis in response to a different stimulus.
^1 Mice (2 for each treatment) were injected ip +/- DK120 30 min prio
to TNF and Actinomycin D. Twelve h later serum transaminase levels were
(§1) To further explore the specificity of DK120 attenuation of TNF-induced hepatotoxicity, several compounds were tested that were found previously not to inhibit apoptotic protease proteolytic activity as measured against a synthetic substrate (data not shown). […] Therefore, the protection mediated by DK120 is not a property of any boron-containing molecule.
^1 Mice (3 for each treatment) were injected ip +/- the inhibitors 30
min prior to TNF and Actinomycin D. Twelve h later serum transaminase

BT-20 = assay type: cell-based, human; conditions: for % DNA fragmentation: BT-20, inhibitor 100 μM, UV 0.5 J/cm^2, 8 h, no inhibitor 44 ± 3.6; for Effect on UV-induced DNA fragmentation: summary of Table 2 (BT-20, 3T3, HL-60)
3T3 = assay: Inhibition of UV-induced DNA fragmentation in 3T3 cells; assay type: cell-based, murine; conditions: inhibitor 100 μM, UV 0.5 J/cm^2, 8 h, no inhibitor 38 ± 1.9
Experimental: To determine if these findings were unique to U937 or if other cell lines also require protease activity to undergo apoptosis, the effects of several inhibitors on apoptosis induced by UV light in the human mammary carcinoma, BT-20, the murine fibroblast cell line, 3T3, and the human myeloid leukemia, HL-60 were tested. For the BT-20 and 3T3 cells, target cells were pretreated for one hour (with or without inhibitors as indicated in the table) and exposed to UV light at 0.5 J/cm^2 and then incubated for eight hours prior to assessing DNA fragmentation. HL-60 cells were pretreated for one hour (with or without inhibitors as indicated in the table) and exposed to UV at 0.2 J/cm^2 and then incubated for two hours prior to assessing DNA fragmentation.
DNA fragmentation assays were carried out according to the protocol of Wright S. C., et al. (1,992) J. Cell. Biochem. 48, 344-355. Target cells were labeled with ^3 H-thymidine and plated in triplicate in flat bottom microtiter plates. Cells were incubated for the indicated length of time for each experiment in the presence of TNF or various inhibitors. In some experiments, cells were treated with UV light at 245 nm using a UV Crosslinker (Fisher Scientific). Assays were harvested and counted on a Packard matrix 96 beta counter. Percent DNA fragmentation was calculated as for the nuclear assay described in Example 3. In assays to test the effects of various inhibitors, the pH of extra wells containing assay buffer, target cells, and each inhibitor was always checked at the beginning and end of each assay to assure that the pH remained at 7.5.

[4] = system: LPS-induced hepatotoxicity
apoptotic protease = assay: Inhibition of apoptotic protease proteolytic activity against a synthetic substrate; assay type: biochemical, human; conditions: data not shown
Experimental: Proteolytic activity was assayed using synthetic substrates selective for different known proteases. All assays were set up by adding 0.02 ml of sample (or known enzyme as a positive control) plus 0.18 ml of appropriate substrate dissolved in PBS PH 7.5 in triplicate in flat bottom microtiter plates, incubated for the indicated length of time at room temperature, and the OD at 405 nm measured using a plate reader.
Elastase-like activity was measured using N-methoxysuccinyl-ala-ala-pro-valp-nitroanilide (SEQ ID NO: 3) (MAAPV) at 0.25 mM as a substrate. For convenience and maximum sensitivity, these assays were routinely incubated 20 h to monitor protease purification. Under these conditions, the elastase dose response was linear up to a concentration of 6.0 μg/ml (OD of 1.0), see FIG. 3C. […] In order to quantitate the activity of the purified protease, identical assays were set up but kinetic readings of OD were taken every hour from 1-6 h. One unit of enzyme was calculated as the amount of enzyme that hydrolyzes 1.0 nmol substrate/h.
as §1

isolated U937 nuclei [5] = assay: DNA fragmentation assay using isolated U937 nuclei; assay type: cell-based, human; conditions: concentrations as high as 0.1 mg/ml (FIG. 6A)
Experimental: U937 cells were labeled with ^3 H-thymidine by culturing overnight with isotope at 0.5 μCi/ml. The cells were pelleted, washed once, and the cytoplasmic membrane lysed by resuspending the cells in assay buffer (50 mM Tris, 250 mM sucrose 10 mM MgSO4, pH 7.5) plus 0.02% NP-40. Nuclei were then pelleted and resuspended in assay buffer at 1×10^6 /ml. The assay was set up in triplicate in flat bottom microtiter plates under sterile conditions. Nuclei (0.05 ml) were mixed with 0.05 ml of sample diluted in 50 mM Tris pH 7.5 or buffer alone to determine total counts. Plates were incubated for 5 h at 37° C. and then harvested by the addition of 0.1 ml of harvesting buffer (10 mM Tris, 10 mM EDTA, 0.3% Triton X-100, pH 7.5). Plates were harvested by filtration onto glass fiber paper and counted on a Packard Matrix 96 beta counter. Percent DNA fragmentation was calculated as follows: […]

[6] = Chymotrypsin-like activity on SAAPP substrate; assay type: biochemical; conditions: eluted from DK120 column
Experimental: To purify the apoptotic protease, a DK120 affinity column was prepared.
To measure chymotrypsin-like activity, N-succinyl-ala-ala-pro-phe p-nitroanilide (SEQ ID NO: 2) (SAAPP) at 0.1 mM was used as the substrate. Trypsin-like activity was measured using N-α-benzyloxycarbonyl-L-lysine thiobenzyl ester (BLT) at 0.2 mM plus 0.11 mM […].

[7] = Binding to DK120 affinity column; conditions: eluted with 0.1 M HCl
isolated U937 nuclei [8] = assay: Gel electrophoresis of DNA fragmentation in isolated U937 nuclei; assay type: cell-based, human

CC(=O)NC(Cc1ccccc1)C(=O)Oc1ccc2ccccc2c1 (racemic) [APNE, N-acetyl-DL-Phenylalanine β-naphthyl ester]
IC50 (U937 cells [1]; Homo sapiens, U-937, read-out: IC50 (Active Concentration), TNF and UV-light induced apoptosis): 40 µM
Effect on DNA fragmentation induced by TNF or UV light (U937 cells [1]; U937 cells, result in words): blocked DNA fragmentation

NC(=O)c1cccc(N)c1 [3-aminobenzamide]
Effect on apoptosis (U937 cells [2]): blocked

Cc1c2oc3c(C)ccc(C(=O)N[C@@H]4C(=O)N[C@H](C(C)C)C(=O)N5CCC[C@H]5C(=O)N(C)CC(=O)N(C)[C@@H](C(C)C)C(=O)O[C@@H]4C)c3nc-2c(C(=O)N[C@@H]2C(=O)N[C@H](C(C)C)C(=O)N3CCC[C@H]3C(=O)N(C)CC(=O)N(C)[C@@H](C(C)C)C(=O)O[C@@H]2C)c(N)c1=O [Actinomycin D] (I: T[dV]P[Sar][NMeV] / II: T[dV]P[Sar][NMeV]; ester I:1-I:C, II:1-II:C; linker I:N-II:N via Actinocin(9to1))
ALT ([3]; Table 7, Actinomycin D 15 mg alone, 12 h, none 39): 70 U/ml
AST ([3]; Table 7, Actinomycin D 15 mg alone, 12 h, none 51): 47 U/ml
ALT ([3]; Table 10 Exp. #1, Actinomycin D 15 mg alone, 12 h): 71 +/- 8.5 U/ml
ALT ([3]; Table 10 Exp. #2, Actinomycin D 15 mg alone, 12 h): 139 +/- 29 U/ml

N=C(N)c1ccccc1 [Benzamidine]
Effect on DNA fragmentation induced by TNF or UV light (U937 cells [1]; U937 cells, result in words): without effect

CC(C)C[C@H](NC(=O)[C@@H](O)[C@H](N)Cc1ccccc1)C(=O)O [Bestatin]
Effect on DNA fragmentation induced by TNF or UV light (U937 cells [1]; U937 cells, result in words): inactive

CC(C)C[C@H](NC(=O)[C@@H](NC(=O)N[C@@H](Cc1ccccc1)C(=O)O)[C@@H]1CCN=C(N)N1)C(=O)N[C@H](C=O)Cc1ccccc1 [Chymostatin]
Effect on DNA fragmentation induced by TNF or UV light (U937 cells [1]; U937 cells, result in words): without effect

CC(C)CC(NC(=O)C1OC1C(=O)O)C(=O)NCCCCN=C(N)N (centres unmarked) [E64]
% DNA fragmentation (BT-20): 41 ± 5.6%
Effect on UV-induced DNA fragmentation (BT-20): inactive
% DNA fragmentation (3T3): 42 ± 2.7%
Effect on DNA fragmentation induced by TNF or UV light (U937 cells [1]; U937 cells, result in words): inactive

N[C@H]1C(O)O[C@H](CO)[C@H](O)[C@@H]1O (some centres unmarked) [Gln, galactosamine]
ALT ([4]; Gln 15 mg alone, survivors): 137 +/- 33 U/ml
AST ([4]; Gln 15 mg alone, survivors): 67 +/- 4.6 U/ml
% Mortality ([4]; mouse, in vivo): 0%

CC(=O)N[C@@H](CC(C)C)C(=O)N[C@@H](CC(C)C)C(=O)N[C@H](C=O)CCCNC(=N)N [Leupeptin]
% DNA fragmentation (BT-20): 42 ± 5.6%
Effect on UV-induced DNA fragmentation (BT-20): inactive
% DNA fragmentation (3T3): 36 ± 2.6%
Effect on DNA fragmentation induced by TNF or UV light (U937 cells [1]; U937 cells, result in words): without effect

CCN1C(=O)C=CC1=O [N-ethylmaleimide]
Effect on DNA fragmentation induced by TNF or UV light (U937 cells [1]; U937 cells, result in words): inactive

O=S(=O)(F)Cc1ccccc1 [PMSF, phenylmethylsulfonylfluoride]
Effect on DNA fragmentation induced by TNF or UV light (U937 cells [1]): not inhibited; also recorded: without effect
Inactive Compounds, Highest Concentration Tested (highest nontoxic concentration, inactive) (U937 cells [1]): 100 µM

CCCCCCCCCCCCCC(=O)O[C@@H]1[C@@H](C)[C@@]2(O)[C@@H](C=C(CO)C[C@]3(O)C(=O)C(C)=C[C@@H]23)[C@@H]2C(C)(C)[C@]12OC(C)=O [Phorbol myristate acetate (PMA), Phorbol myristate acetate]
Effect on apoptosis (U937 cells [2]): inhibits apoptosis induced by TNF or UV light

COC(=O)[C@H](CCCNC(=N)N)NS(=O)(=O)c1ccc(C)cc1 [TAME, p-toluene-sulfonyl-L-arginine methyl ester]
Effect on DNA fragmentation induced by TNF or UV light (U937 cells [1]; U937 cells, result in words): without effect

Cc1ccc(S(=O)(=O)N[C@@H](CCCCN)C(=O)CCl)cc1 [TLCK, N-α-p-tosyl-L-lysine-chloromethyl ketone]
Effect on DNA fragmentation induced by TNF or UV light (U937 cells [1]; U937 cells, result in words): without effect

Aprotinin
Inhibition of apoptotic protease proteolytic activity (apoptotic protease): do not inhibit apoptotic protease
Protection from TNF-induced hepatotoxicity ([3]; Table 10, 10 mg/kg): neither of these inhibitors had much effect on ALT levels
ALT ([3]; mouse, in vivo): 346 +/- 14 U/ml

chymotrypsin
DNA fragmentation in isolated nuclei by commercial proteases (isolated U937 nuclei [5]): completely inactive
Protease activity on SAAPP substrate after elution and neutralization [6]: high levels of protease activity
Binding to DK120 affinity matrix [7]: efficiently bound

trypsin
DNA fragmentation in isolated nuclei by commercial proteases (isolated U937 nuclei [5]): completely inactive

α1-anti-protease: α1-anti-protease, protease inhibitor
DNA of nuclei treated with compound alone, gel (isolated U937 nuclei [8]; FIG. 5, lane 4): remained in high molecular weight form
Effect on protease-induced DNA fragmentation, gel (isolated U937 nuclei [8]; protease pretreated 1 hr (FIG. 5, lane 3)): DNA fragmentation was abolished

B1: leukocyte elastase: human leukocyte elastase obtained from Calbiochem (protein, UniProt P08246 30-267, looked up)
Neutrophil elastase: IVGGRRARPHAWPFMVSLQLRGGHFCGATLIAPNFVMSAAHCVANVNVRAVRVVLGAHNLSRREPTRQVFAVQRIFENGYDPVNLLNDIVILQLNGSATINANVQVAQLPAQGRRLGNGVQCLAMGWGLLGRNRGIASVLQELNVTVVTSLCRRSNVCTLVRGRQAGVCFGDSGSPLVCNGLIHGIASFVRGGCASGLYPDAFAPVAQFVNWIDSIIQRSEDNPCPHPRDPDPASRTH
DNA fragmentation in isolated nuclei by commercial proteases (isolated U937 nuclei [5]): cannot induce DNA fragmentation in U937 nuclei
DNA fragmentation in isolated nuclei by commercial proteases (isolated U937 nuclei [5]; listed as elastase): completely inactive
